# Legend:
# [1] = Phase 2/3 study, safety evaluation and adverse events; details: Table 7
# [2] = system: EGFR positive, metastatic colorectal cancer; test: Phase 2/3 study, radiologic response and survival
# [3] = human, in vivo
compound,measurement,setting,value
"CCc1c2c(nc3ccc(OC(=O)N4CCC(N5CCCCC5)CC4)cc13)-c1cc3c(c(=O)n1C2)COC(=O)[C@]3(O)CC [Irinotecan monotherapy, irinotecan]","Test drug-related death AE, number of patients",[1],0
same,"Complete response, number of patients",[2]; Ph2/3 trial,1
same,"Complete response, rate in parentheses",[2]; Ph2/3 trial,0.6
same,"Partial response, number of patients",[2]; Ph2/3 trial,20
same,"Partial response, rate in parentheses",[2]; Ph2/3 trial,12.2
same,"Progressive disease, number of patients",[2]; Ph2/3 trial,44
same,"Progressive disease, rate in parentheses",[2]; Ph2/3 trial,26.8
same,"Stable disease, number of patients",[2]; Ph2/3 trial,86
same,"Stable disease, rate in parentheses",[2]; Ph2/3 trial,52.4
same,Time to disease progression,[2]; Ph2/3 trial,4.1 months
same,"Unable to evaluate, number of patients",[2]; Ph2/3 trial,13
same,"Unable to evaluate, rate in parentheses",[2]; Ph2/3 trial,7.9
same,"Overall response rate, number of patients",[2]; sum of CR and PR,21
same,"Overall response rate, rate in parentheses","[2]; sum of CR and PR, interval in brackets not copied",12.8
same,"Disease control rate, number of patients","[2]; sum of CR, PR and SD",107
same,"Disease control rate, rate in parentheses","[2]; sum of CR, PR and SD, interval in brackets not copied",65.2
same,"At least one ADR, number of patients",[3],126
same,"At least one ADR, share of patients",[3],74.1%
same,"At least one AE which lead to stop drug treatment, number of patients",[3],27
same,"At least one AE which lead to stop drug treatment, share of patients",[3],15.9%
same,"At least one AE, number of patients",[3],148
same,"At least one AE, share of patients",[3],87.1%
same,"At least one Level □ or above ADR, number of patients",[3],10
same,"At least one Level □ or above ADR, share of patients",[3],5.9%
same,"At least one Level □ or above AE, number of patients",[3],12
same,"At least one Level □ or above AE, share of patients",[3],7.1%
same,"At least one Level □ or above important AE, number of patients",[3],11
same,"At least one Level □ or above important AE, share of patients",[3],6.5%
same,"At least one SAE, number of patients",[3],8
same,"At least one SAE, share of patients",[3],4.7%
same,"At least one important AE, number of patients",[3],120
same,"At least one important AE, share of patients",[3],70.6%
same,"At least one test drug-related SAE, number of patients",[3],1
same,"At least one test drug-related SAE, share of patients",[3],0.6%
same,"Grade 3-4 Abdominal pain, number",[3],0
same,"Grade 3-4 Acne-like rash, number",[3],0
same,"Grade 3-4 Anemia, number",[3],3
same,"Grade 3-4 Anemia, value in parentheses",[3],(1.8)
same,"Grade 3-4 Asthenia, number",[3],6
same,"Grade 3-4 Asthenia, value in parentheses",[3],(3.7)
same,"Grade 3-4 Diarrhea, number",[3],12
same,"Grade 3-4 Diarrhea, value in parentheses",[3],(7.3)
same,"Grade 3-4 Fever, number",[3],1
same,"Grade 3-4 Fever, value in parentheses",[3],(0.9)
same,"Grade 3-4 Nausea and vomiting, number",[3],16
same,"Grade 3-4 Nausea and vomiting, value in parentheses",[3],(9.8)
same,"Grade 3-4 Neutropenia, number",[3],14
same,"Grade 3-4 Neutropenia, value in parentheses",[3],(8.5)
same,"Grade 3-4 Stomatitis, number",[3],0
same,"Grade 3-4 Thrombocytopenia, number",[3],0
same,"Grade 3-4 adverse events, Any, number",[3],57
